ChEMBL document CHEMBL1817598, “Design, synthesis and biological evaluation of a simplified fluorescently labeled discodermolide as a molecular probe to study the binding of discodermolide to tubulin” (Bioorg Med Chem, 2011)

Experiments:
[1] = system: A2780; test: Cytotoxicity against human A2780 cells after 2 days by Alamar blue assay; type: functional, cell-based; details: A2780, 48 h
[2] = Effect on bovine brain tubulin assembly by spectrophotometry; set-up: species or system Bos taurus
[3] = system: A2780; test: Ratio of compound IC50 to Paclitaxel IC50 for human A2780 cells; type: functional
[4] = Binding affinity to microtubule by spectrofluorometry

Structure (SMILES)	IC50 [1]	EC50 [2]	Ratio IC50 [3]	Kd [4]
CCCC[C@H](C)[C@H](OC(N)=O)[C@@H](C)[C@H](O)[C@@H](C)C/C(C)=C\[C@H](C)[C@@H](O)[C@@H](C)/C=C\[C@@H](O)CCOC(=O)c1cccc(N(C)C)c1	5.4 µM	5.2 µM	386	24 µM
CC(=O)O[C@H]1C(=O)[C@@]2(C)[C@H]([C@H](OC(=O)c3ccccc3)[C@]3(O)C[C@H](OC(=O)[C@H](O)[C@@H](NC(=O)c4ccccc4)c4ccccc4)C(C)=C1C3(C)C)[C@]1(OC(C)=O)CO[C@@H]1C[C@@H]2O [PACLITAXEL]	–	0.49 µM	–	0.015 µM
